This experiment has as its target T1, Recombinant human liver GK1 (GST-GK) (Homo sapiens, UniProt P35557).
T1 construct: made in house; host or cells: E. coli
T1 sequence (P35557 1-466 isoform P35557-2): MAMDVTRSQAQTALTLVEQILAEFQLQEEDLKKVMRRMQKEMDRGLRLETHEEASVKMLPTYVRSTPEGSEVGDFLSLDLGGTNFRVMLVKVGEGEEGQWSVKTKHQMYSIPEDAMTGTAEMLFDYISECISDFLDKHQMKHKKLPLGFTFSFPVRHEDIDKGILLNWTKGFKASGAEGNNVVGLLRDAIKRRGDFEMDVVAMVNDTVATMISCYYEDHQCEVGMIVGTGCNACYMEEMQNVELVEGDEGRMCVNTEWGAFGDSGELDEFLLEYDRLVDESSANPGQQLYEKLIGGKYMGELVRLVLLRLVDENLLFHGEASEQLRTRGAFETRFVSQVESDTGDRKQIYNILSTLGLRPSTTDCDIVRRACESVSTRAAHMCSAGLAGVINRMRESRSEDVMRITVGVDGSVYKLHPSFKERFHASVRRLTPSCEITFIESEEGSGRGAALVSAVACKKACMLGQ
The experiment can be described thus: In vitro glucokinase activity (G6PDH-coupled NADH assay). The experiment is classed as biochemical. The conditions noted are these: 30° C., 5 mM D-glucose, 10% DMSO. The gist of the method:
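GST-tagged human liver GK1 from E. coli, assayed at 30° C in 25 mM Hepes pH 7.1 with 5 mM D-glucose, 1 mM ATP, 1.8 mM NAD and G6PDH coupling, 10% DMSO final; reaction started with enzyme after 10 min preincubation. NADH formation followed at OD340; SC1.5 is activator concentration giving 50% increase over DMSO control rate.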

`Cc1cccc(OC2=CC(=O)N([C@@H](CC(C)C)C(=O)Nc3ccn(CCO[Si](C)(C)C(C)(C)C)n3)C2)c1F` [Example 132, (S)-2-[4-(2-Fluoro-3-methyl-phenoxy)-2-oxo-2,5-dihydro-pyrrol-1-yl]-4-methyl-pentanoic acid {1-[2-(t-butyl-dimethyl-silanyloxy)-ethyl]-1H-pyrazol-3-yl}-amide]: the “SC1.5 (concentration of activator that produced a 50% increase in the activity of GK)” value came to 0.577 µM.
With `Cc1cccc(OC2=CC(=O)N([C@@H](CC(C)C)C(=O)Nc3ccn(CCO)n3)C2)c1F` [Example 133, (S)-2-[4-(2-Fluoro-3-methyl-phenoxy)-2-oxo-2,5-dihydro-pyrrol-1-yl]-4-methyl-pentanoic acid [1-(2-hydroxy-ethyl)-1H-pyrazol-3-yl]-amide] the figure was 0.249 µM.
With `CC(C)C[C@@H](C(=O)Nc1ccn(C[C@@H](O)CO)n1)N1CC(Oc2c(F)ccc(OC(C)C)c2F)=CC1=O` [Example 134, (S)-2-[4-(2,6-Difluoro-3-isopropoxy-phenoxy)-2-oxo-2,5-dihydro-pyrrol-1-yl]-4-methyl-pentanoic acid [1-((R)-2,3-dihydroxy-propyl)-1H-pyrazol-3-yl]-amide] the figure was 0.069 µM; with `CC(C)C[C@@H](C(=O)Nc1ccn(CC(C)(C)O)n1)N1CC(Oc2c(F)ccc(OC(C)C)c2F)=CC1=O` [Example 135, (S)-2-[4-(2,6-Difluoro-3-isopropoxy-phenoxy)-2-oxo-2,5-dihydro-pyrrol-1-yl]-4-methyl-pentanoic acid [1-(2-hydroxy-2-methyl-propyl)-1H-pyrazol-3-yl]-amide], 0.066 µM.
The same measure for `CC(C)C[C@@H](C(=O)Nc1ccn(C[C@@H]2COC(C)(C)O2)n1)N1CC(Oc2ccccc2Br)=CC1=O` [Example 136, (S)-2-[4-(2-Bromo-phenoxy)-2-oxo-2,5-dihydro-pyrrol-1-yl]-4-methyl-pentanoic acid [1-((R)-2,2-dimethyl-[1,3]dioxolan-4-yl-methyl)-1H-pyrazol-3-yl]-amide]: 2.013 µM; for `CC(C)C[C@@H](C(=O)Nc1ccn(C[C@@H](O)CO)n1)N1CC(Oc2ccccc2Br)=CC1=O` [Example 137, (S)-2-[4-(2-Bromo-phenoxy)-2-oxo-2,5-dihydro-pyrrol-1-yl]-4-methyl-pentanoic acid [1-((R)-2,3-dihydroxy-propyl)-1H-pyrazol-3-yl]-amide]: 0.26 µM; for `CC(C)C[C@@H](C(=O)Nc1ccn(CC(C)(C)O)n1)N1CC(Oc2cccc(C#N)c2)=CC1=O` [Example 138, (S)-2-[4-(3-Cyano-phenoxy)-2-oxo-2,5-dihydro-pyrrol-1-yl]-4-methyl-pentanoic acid [1-(2-hydroxy-2-methyl-propyl)-1H-pyrazol-3-yl]-amide]: 3.733 µM.
Regarding `CC(C)C[C@@H](C(=O)Nc1ccn(C[C@@H]2COC(C)(C)O2)n1)N1CC(Oc2cccc(N(C)C)c2F)=CC1=O` [Example 139, (S)-2-[4-(3-Dimethylamino-2-fluoro-phenoxy)-2-oxo-2,5-dihydro-pyrrol-1-yl]-4-methyl-pentanoic acid [1-((R)-2,2-dimethyl-[1,3]dioxolan-4-yl-methyl)-1H-pyrazol-3-yl]-amide], the “SC1.5 (concentration of activator that produced a 50% increase in the activity of GK)” value amounted to 0.796 µM.
The same measure for `CC(C)C[C@@H](C(=O)Nc1ccn(C[C@@H](O)CO)n1)N1CC(Oc2cccc(N(C)C)c2F)=CC1=O.Cl` [Example 140, (S)-2-[4-(3-Dimethylamino-2-fluoro-phenoxy)-2-oxo-2,5-dihydro-pyrrol-1-yl]-4-methyl-pentanoic acid [1-((R)-2,3-dihydroxy-propyl)-1H-pyrazol-3-yl]-amide hydrochloride]: 0.37 µM.
The same measure for `CC(C)C[C@@H](C(=O)Nc1ccn(C[C@@H]2COC(C)(C)O2)n1)N1CC(Oc2cccc(N3CCCC3)c2F)=CC1=O` [Example 141, (S)-2-[4-(2-Fluoro-3-pyrrolidin-1-yl-phenoxy)-2-oxo-2,5-dihydro-pyrrol-1-yl]-4-methyl-pentanoic acid [1-((R)-2,2-dimethyl-[1,3]dioxolan-4-yl-methyl)-1H-pyrazol-3-yl]-amide]: 0.516 µM; for `CC(C)C[C@@H](C(=O)Nc1ccn(C[C@@H](O)CO)n1)N1CC(Oc2cccc(N3CCCC3)c2F)=CC1=O` [Example 142, (S)-2-[4-(2-Fluoro-3-pyrrolidin-1-yl-phenoxy)-2-oxo-2,5-dihydro-pyrrol-1-yl]-4-methyl-pentanoic acid [1-((R)-2,3-dihydroxy-propyl)-1H-pyrazol-3-yl]-amide]: 0.234 µM; for `CC(C)C[C@@H](C(=O)Nc1ccn(C)n1)N1CC(Oc2cccc(C(C)(C)O)c2F)=CC1=O` [Example 143, (S)-2-{4-[2-Fluoro-3-(1-hydroxy-1-methyl-ethyl)-phenoxy]-2-oxo-2,5-dihydro-pyrrol-1-yl}-4-methyl-pentanoic acid (1-methyl-1H-pyrazol-3-yl)-amide]: 2.089 µM.
The same measure for `C=Cc1cccc(OC2=CC(=O)N([C@@H](CC(C)C)C(=O)Nc3ccn(C[C@@H]4COC(C)(C)O4)n3)C2)c1F` [Example 144, (S)-2-[4-(2-Fluoro-3-vinyl-phenoxy)-2-oxo-2,5-dihydro-pyrrol-1-yl]-4-methyl-pentanoic acid [1-((R)-2,2-dimethyl-[1,3]dioxolan-4-yl-methyl)-1H-pyrazol-3-yl]-amide]: 0.251 µM; for `C=Cc1cccc(OC2=CC(=O)N([C@@H](CC(C)C)C(=O)Nc3ccn(C[C@@H](O)CO)n3)C2)c1F` [Example 145, (S)-2-[4-(2-Fluoro-3-vinyl-phenoxy)-2-oxo-2,5-dihydro-pyrrol-1-yl]-4-methyl-pentanoic acid [1-((R)-2,3-dihydroxy-propyl)-1H-pyrazol-3-yl]-amide]: 0.134 µM.
As to `CC(C)C[C@@H](C(=O)Nc1ccn(C[C@@H]2COC(C)(C)O2)n1)N1CC(Oc2cccc(C3CC3)c2F)=CC1=O` [Example 146, (S)-2-[4-(3-Cyclopropyl-2-fluoro-phenoxy)-2-oxo-2,5-dihydro-pyrrol-1-yl]-4-methyl-pentanoic acid [1-((R)-2,2-dimethyl-[1,3]dioxolan-4-yl-methyl)-1H-pyrazol-3-yl]-amide], the “SC1.5 (concentration of activator that produced a 50% increase in the activity of GK)” value stood at 0.21 µM.
On to `CC(C)C[C@@H](C(=O)Nc1ccn(C[C@@H](O)CO)n1)N1CC(Oc2cccc(C3CC3)c2F)=CC1=O` [Example 147, (S)-2-[4-(3-Cyclopropyl-2-fluoro-phenoxy)-2-oxo-2,5-dihydro-pyrrol-1-yl]-4-methyl-pentanoic acid [1-((R)-2,3-dihydroxy-propyl)-1H-pyrazol-3-yl]-amide], for which the “SC1.5 (concentration of activator that produced a 50% increase in the activity of GK)” value was 0.105 µM.
With `CCOC(=O)Cn1ccc(NC(=O)[C@H](CC(C)C)N2CC(Oc3cccc(C4CC4)c3F)=CC2=O)n1` [Example 148, (3-{(S)-2-[4-(3-Cyclopropyl-2-fluoro-phenoxy)-2-oxo-2,5-dihydro-pyrrol-1-yl]-4-methyl-pentanoylamino}-pyrazol-1-yl)-acetic acid ethyl ester] the figure was 0.21 µM; with `CC(C)C[C@@H](C(=O)Nc1ccn(CC(=O)O)n1)N1CC(Oc2cccc(C3CC3)c2F)=CC1=O` [Example 149, (3-{(S)-2-[4-(3-Cyclopropyl-2-fluoro-phenoxy)-2-oxo-2,5-dihydro-pyrrol-1-yl]-4-methyl-pentanoylamino}-pyrazol-1-yl)-acetic acid], 1.196 µM.
With `CCOc1cccc(OC2=CC(=O)N([C@@H](CC(C)C)C(=O)Nc3cnc([C@H]4COC(C)(C)O4)cn3)C2)c1F` [Example 150, (S)-2-[4-(3-Ethoxy-2-fluoro-phenoxy)-2-oxo-2,5-dihydro-pyrrol-1-yl]-4-methyl-pentanoic acid [5-((S)-2,2-dimethyl-[1,3]dioxolan-4-yl)-pyrazin-2-yl]-amide] the figure was 0.2 µM; with `CCOc1cccc(OC2=CC(=O)N([C@@H](CC(C)C)C(=O)Nc3cnc([C@H](O)CO)cn3)C2)c1F` [Example 151, (S)-2-[4-(3-Ethoxy-2-fluoro-phenoxy)-2-oxo-2,5-dihydro-pyrrol-1-yl]-4-methyl-pentanoic acid [5-((S)-1,2-dihydroxy-ethyl)-pyrazin-2-yl]-amide], 0.063 µM; with `CCOc1ccc(F)c(OC2=CC(=O)N([C@@H](CC(C)C)C(=O)Nc3cnc([C@H]4COC(C)(C)O4)cn3)C2)c1F` [Example 152, (S)-2-[4-(3-Ethoxy-2,6-difluoro-phenoxy)-2-oxo-2,5-dihydro-pyrrol-1-yl]-4-methyl-pentanoic acid [5-((S)-2,2-dimethyl-[1,3]dioxolan-4-yl)-pyrazin-2-yl]-amide], 0.566 µM.

Source of the values: patent publication US7741327B2 (Hoffmann-La Roche Inc., priority 2008, dated 2010).
